What was measured:
NEM cells = test: Annexin V staining, NEM cells; assay type: cell-based, human; settings: 25 μM DIM-C-pPhOH, 10 μM DIM-C-pPhOH-3-Cl-5-OCH3, vs DMSO control, FIG. 4C
ESECT-7 cells = test: Western blotting of growth promoting and proapoptotic gene products, ESECT-7; assay type: cell-based, human
From the text: Reagents and Antibodies: Annexin V Dead Cell Apoptosis Kit (V13241) was purchased from Invitrogen. The primary antibodies used were EGFR (4267, 1:1000), Survivin (2808, 1:1000), c-Caspase-3 (9661, 1; 1000), c-PARP (9541, 1:1000) from Cell Signaling Technology (Danvers, MA) and c-Myc (sc-40, 1:500), Bcl-2 (sc-509, 1:500) and Bax (sc-20067, 1:500) from Santacruz Biotechnology (Santacruz, CA), NR4A1 (ab109180, 1:3000) and α-SMA (ab32575, 1:3000) from Abcam (Cambridge, MA), β-Actin (A1978, 1:10000) from Sigma Aldrich Corporation (Milwaukee, WI). COL1A1 (GTX112731, 1:2000), CTGF (GTX124232, 1:2000) and FN (GTX112794, 1:2000) from GeneTex, Inc. (Irvine, CA). Secondary antibodies for rabbit (7074), mouse (7076) and Anti-rabbit Alexa Fluor (4412) purchased from Cell Signaling Technology (Danvers, MA). […]
Western Blotting: ESECT-7 and ESECT-40 cells (2×105) were seeded and allowed to attach for 24 hr, and cells were then treated for 24 hr with either DMSO or different concentrations of DIM-C-pPhOH and DIM-C-pPhOH-3-Cl-5-OCH3. Cells were then lysed and whole-cell lysates were resolved in 10% SDS-PAGE gels and proteins were transferred using PVDF membrane by wet blotting followed by primary and secondary antibody incubation and detected using ECL reagent as described.

GAL4-NR4A1 = molecular target: T1, GAL4-NR4A1 (Homo sapiens, UniProt P22736); test: Luciferase assay, GAL4-NR4A1 chimera/UAS-luc in ESECT-7 cells; assay type: cell-based; settings: ESECT-7 cells transfected with GAL4-NR4A1 chimera/UAS-luc; 18 hr treatment; FIG. 2A
T1 construct: GAL4 (fusion partner); expressed in transfected cells; host or cells: ESECT-7 patient-derived endometriotic cells
T1 sequence (P22736 with tags, fused parts or gaps): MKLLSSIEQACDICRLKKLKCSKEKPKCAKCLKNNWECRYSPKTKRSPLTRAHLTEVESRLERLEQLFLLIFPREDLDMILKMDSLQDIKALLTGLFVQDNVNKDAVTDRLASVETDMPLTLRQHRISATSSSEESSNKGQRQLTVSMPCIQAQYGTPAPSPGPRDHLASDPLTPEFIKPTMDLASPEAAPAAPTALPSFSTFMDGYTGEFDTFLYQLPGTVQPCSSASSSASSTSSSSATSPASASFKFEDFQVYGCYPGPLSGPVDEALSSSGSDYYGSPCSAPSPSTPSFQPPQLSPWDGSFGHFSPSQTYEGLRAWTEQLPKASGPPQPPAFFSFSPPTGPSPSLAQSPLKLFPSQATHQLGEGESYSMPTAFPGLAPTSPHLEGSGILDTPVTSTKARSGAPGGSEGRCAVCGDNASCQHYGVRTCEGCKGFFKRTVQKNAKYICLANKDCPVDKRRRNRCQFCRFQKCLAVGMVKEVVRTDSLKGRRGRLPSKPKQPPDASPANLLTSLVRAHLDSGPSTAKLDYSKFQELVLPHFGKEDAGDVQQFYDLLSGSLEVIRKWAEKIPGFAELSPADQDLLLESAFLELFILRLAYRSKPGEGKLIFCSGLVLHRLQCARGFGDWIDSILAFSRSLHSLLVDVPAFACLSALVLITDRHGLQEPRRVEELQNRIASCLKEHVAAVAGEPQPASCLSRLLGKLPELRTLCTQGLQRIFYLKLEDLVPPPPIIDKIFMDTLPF
Experimental: Luciferase assay: ESECT-7 and ESECT-40 cells were plated on 12-well plates in DMEM/F12 supplemented with 2.5% charcoal-stripped FBS. After overnight attachment and growth, various amounts of DNA [i.e., UASx5-Luc (500 ng), GAL4-NR4A1 (50 ng), NBREx3-Luc (800 ng), NurREx3-Luc (800 ng) and Flag-NR4A1 (80 ng)] were co-transfected into each well using Lipofectamine 2000 reagent (Invitrogen, Carlsbad, CA) according to the manufacturer's protocol. After 6 hr of transfection, cells were treated with plating medium (as above) containing either solvent (DMSO) or indicated concentrations of the compound for 18 hr. Cells were then lysed and cell extracts were used for chemiluminescence quantification of luciferase activity. Luciferase activity values were normalized against corresponding protein concentration values determined by Bradford assay. Both GAL4- and Flag-NR4A1 constructs contain full-length NR4A1 coding sequence and all the plasmids used in this study were previously described.

ESECT-40 cells = test: Annexin V staining, ESECT-40; assay type: cell-based, human; settings: 10 μM DIM-C-pPhOH-3-Cl-5-OCH3, 25 μM DIM-C-pPhOH, FIG. 3B
Experimental: Annexin V staining: ESECT-7 and ESECT-40 cells were seeded in Nunc chambered cover glass followed by various drug treatments. The cells were then washed with ice-cold PBS, and 5 μL Alexa Fluor® 488 Annexin V with 100 μg/mL PI (as per the manufacturer's instructions) were added to the cells and incubated for 15 min, and the cells were observed using a Zeiss confocal fluorescence microscope.

COc1cc(C(c2c[nH]c3ccccc23)c2c[nH]c3ccccc23)cc(Cl)c1O [DIM-C-pPhOH-3-Cl-5-OCH3]
Annexin V staining (NEM cells): did not enhance | expression of EGFR and cMyc (ESECT-7 cells; 5-10 μM, 24 hr, FIG. 2D): downregulated | markers of apoptosis (downregulation of survivin and Bcl-2, induced Bax, cleaved PARP and caspase-3) (ESECT-7 cells; Five μM, 24 hours, FIG. 3C): significantly induced several markers of apoptosis | intrinsic transcriptional activity of GAL4-NR4A1 (GAL4-NR4A1): inhibited the intrinsic transcriptional activity | Annexin V staining (apoptosis) (ESECT-40 cells): significantly induced

Reference: patent US12622892B2, “Methods for treating endometriosis” (THE TEXAS A&M UNIVERSITY SYSTEM, priority 2020, dated 2026)
